Measurements from patent US6506580B1, “Splice variants for human 5-HT4 serotonin receptor and their applications, in particular for screening” (Institut National de la Sante et de la Recherche Medicale …, priority 1997, dated 2003).

Legend:
[1] = system: cells expressing the isoforms of the receptor 5-HT4; test: cAMP formation in transiently transfected COS-7 cells, statement for all isoforms together; format: cell-based, human; details: preincubation with 1 μM prior to 5-HT, COS-7 cells expressing the isoforms
Description: The entire coding region of the cDNAs of 5-HT4(a), 5-HT4(b), 5-HT4(c) and 5-T4(d) was subcloned into a mammalian expression vector pRC/CMV (Invitrogen, Carlsbad, Calif.). The transfections were carried out using polyethyleneimine (PEI) as described in Boussif et al. (1995). The cells were transfected using a mixture of DNA and of PEI in a ratio of 20 μmol of PEI/mg of DNA in 0.9% NaCl. […] The cells transfected with the receptor 5-HT4 cDNA constructs were compared with the “blank”-transfected cells, which were exposed to the unmodified pRC/CMV plasmid. […] The reaction was stopped by aspiration of the medium and addition of 500 μl of ice-cold ethanol. After one hour at room temperature, the cells were scraped, and everything was collected and freeze-dried. The pellet was resuspended in 350 μl of PBS and centrifuged for 5 min at 300 g. The cAMP was quantified in the supernatant using a radioimmunological assay (E.R.I.A. assay kit from Pasteur Diagnostics 79830). Student's t tests were carried out using the program Quick TEst.

[2] = biological target: T1, receptor 5-HT4(a) (Homo sapiens, UniProt Q13639); test: cAMP formation in transiently transfected COS-7 cells; format: cell-based; details: COS-7, 1 μM, no agonist
T1 construct: The entire coding region of the cDNAs of 5-HT4(a), 5-HT4(b), 5-HT4(c) and 5-T4(d) was subcloned; expressed in transfected cells; host or cells: COS-7 cells, transient, pRC/CMV vector
Description: (§1) The entire coding region of the cDNAs of 5-HT4(a), 5-HT4(b), 5-HT4(c) and 5-T4(d) was subcloned into a mammalian expression vector pRC/CMV (Invitrogen, Carlsbad, Calif.). The transfections were carried out using polyethyleneimine (PEI) as described in Boussif et al. (1995). The cells were transfected using a mixture of DNA and of PEI in a ratio of 20 μmol of PEI/mg of DNA in 0.9% NaCl. For the radioligand binding assays, the COS-7 cells were seeded into culture flasks of 1.5×10^4 mm^2 one day before the transfection, at a density of 1×10^7 cells/flask, incubated for six hours with plasmid DNA (150 μg/flask) and collected 48 hours after transfection. For the measurement of cAMP formation, the COS-7 cells were seeded onto twelve-well plates one day before transfection, at a density of 5×10^5 cells/well, incubated for six hours with plasmid DNA (4 to 8 μg/well according to the experiments) and assayed 24 hours after the transfection. The cells transfected with the receptor 5-HT4 cDNA constructs were compared with the “blank”-transfected cells, which were exposed to the unmodified pRC/CMV plasmid.
(§2) To measure intracellular cAMP accumulation, the transiently transfected COS-7 cells were incubated, 24 hours after transfection, in Dulbecco's modified Eagle medium (DMEM) containing 5 mM theophylline, 10 mM HEPES and 10 μM pargyline for 15 minutes at 37° C., in the presence of 5% CO2. […] The reaction was stopped by aspiration of the medium and addition of 500 μl of ice-cold ethanol. After one hour at room temperature, the cells were scraped, and everything was collected and freeze-dried. The pellet was resuspended in 350 μl of PBS and centrifuged for 5 min at 300 g. The cAMP was quantified in the supernatant using a radioimmunological assay (E.R.I.A. assay kit from Pasteur Diagnostics 79830). Student's t tests were carried out using the program Quick TEst.

[3] = biological target: T2, receptor 5-HT4(b) (Homo sapiens, UniProt Q13639); test: as above; format: cell-based; details: COS-7, 1 μM, no agonist
T2 construct: The entire coding region of the cDNAs of 5-HT4(a), 5-HT4(b), 5-HT4(c) and 5-T4(d) was subcloned; expressed in transfected cells; host or cells: COS-7 cells, transient, pRC/CMV vector; cDNA amplified from human brain and ileum RNA
Description: as §1, §2

[4] = biological target: receptor 5-HT4(c) (Homo sapiens, UniProt Q13639); test: as above; format: cell-based; parameters: The entire coding region of the cDNAs of 5-HT4(a), 5-HT4(b), 5-HT4(c) and 5-T4(d) was subcloned; expressed in transfected cells; host or cells: COS-7 cells, transient, pRC/CMV vector; cDNA amplified from human brain and ileum RNA; details: for decrease of the basal cAMP values: 1 μM
Description: as §1, §2
ML10375 is capable of reducing the cAMP levels in the cells expressing the 5-HT4(c) and 5-HT4(d) isoforms in the absence of any stimulation of the receptor by 5-HT4 agonists. To test the hypothesis that ML10375 may constitute a reverse agonist for the human receptor 5-HT4, the 5-HT4(c) isoform was overexpressed in COS-7 cells in order to increase the frequency of the spontaneously active state of the receptor. The COS-7 cells were transfected with 4 to 8 μg of plasmid DNA per well in order to obtain an increase in the expression levels of the receptor 5-HT4(c). […] (FIG. 6B).

[5] = biological target: receptor 5-HT4(d) (Homo sapiens, UniProt Q13639); test: as above; format: cell-based; parameters: The entire coding region of the cDNAs of 5-HT4(a), 5-HT4(b), 5-HT4(c) and 5-T4(d) was subcloned; expressed in transfected cells; host or cells: COS-7 cells, transient, pRC/CMV vector; cDNA amplified from human brain and ileum RNA; details: COS-7, 1 μM, no agonist
Description: The entire coding region of the cDNAs of 5-HT4(a), 5-HT4(b), 5-HT4(c) and 5-T4(d) was subcloned into a mammalian expression vector pRC/CMV (Invitrogen, Carlsbad, Calif.). The transfections were carried out using polyethyleneimine (PEI) as described in Boussif et al. (1995). The cells were transfected using a mixture of DNA and of PEI in a ratio of 20 μmol of PEI/mg of DNA in 0.9% NaCl. For the radioligand binding assays, the COS-7 cells were seeded into culture flasks of 1.5×10^4 mm^2 one day before the transfection, at a density of 1×10^7 cells/flask, incubated for six hours with plasmid DNA (150 μg/flask) and collected 48 hours after transfection. For the measurement of cAMP formation, the COS-7 cells were seeded onto twelve-well plates one day before transfection, at a density of 5×10^5 cells/well, incubated for six hours with plasmid DNA (4 to 8 μg/well according to the experiments) and assayed 24 hours after the transfection. […]
To measure intracellular cAMP accumulation, the transiently transfected COS-7 cells were incubated, 24 hours after transfection, in Dulbecco's modified Eagle medium (DMEM) containing 5 mM theophylline, 10 mM HEPES and 10 μM pargyline for 15 minutes at 37° C., in the presence of 5% CO2. […] The cAMP was quantified in the supernatant using a radioimmunological assay (E.R.I.A. assay kit from Pasteur Diagnostics 79830). […]

Chain of receptor 5-HT4(c) (Q13639 1-380 isoform Q13639-4): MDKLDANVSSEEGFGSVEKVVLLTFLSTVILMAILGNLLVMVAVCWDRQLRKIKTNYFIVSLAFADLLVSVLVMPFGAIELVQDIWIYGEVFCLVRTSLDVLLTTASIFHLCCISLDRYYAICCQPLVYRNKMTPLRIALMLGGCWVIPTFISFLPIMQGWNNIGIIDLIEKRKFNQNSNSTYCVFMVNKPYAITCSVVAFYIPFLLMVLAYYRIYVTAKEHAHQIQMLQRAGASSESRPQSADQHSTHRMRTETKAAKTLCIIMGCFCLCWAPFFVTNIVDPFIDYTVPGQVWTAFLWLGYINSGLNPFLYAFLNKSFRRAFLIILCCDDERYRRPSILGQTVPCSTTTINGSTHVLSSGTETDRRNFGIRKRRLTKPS
T1 sequence (Q13639 1-387 isoform Q13639-2): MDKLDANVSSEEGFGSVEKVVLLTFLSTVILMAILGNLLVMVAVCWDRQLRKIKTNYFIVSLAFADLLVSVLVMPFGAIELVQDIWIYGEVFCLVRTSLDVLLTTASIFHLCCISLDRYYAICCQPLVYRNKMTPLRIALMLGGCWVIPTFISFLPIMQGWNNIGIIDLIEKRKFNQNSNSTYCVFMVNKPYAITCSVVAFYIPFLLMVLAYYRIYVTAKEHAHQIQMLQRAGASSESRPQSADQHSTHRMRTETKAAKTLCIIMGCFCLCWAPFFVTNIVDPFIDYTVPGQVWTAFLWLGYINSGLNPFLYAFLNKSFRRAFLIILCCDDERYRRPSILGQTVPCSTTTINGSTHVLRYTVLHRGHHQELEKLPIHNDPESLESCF
T2 sequence (Q13639 whole entry): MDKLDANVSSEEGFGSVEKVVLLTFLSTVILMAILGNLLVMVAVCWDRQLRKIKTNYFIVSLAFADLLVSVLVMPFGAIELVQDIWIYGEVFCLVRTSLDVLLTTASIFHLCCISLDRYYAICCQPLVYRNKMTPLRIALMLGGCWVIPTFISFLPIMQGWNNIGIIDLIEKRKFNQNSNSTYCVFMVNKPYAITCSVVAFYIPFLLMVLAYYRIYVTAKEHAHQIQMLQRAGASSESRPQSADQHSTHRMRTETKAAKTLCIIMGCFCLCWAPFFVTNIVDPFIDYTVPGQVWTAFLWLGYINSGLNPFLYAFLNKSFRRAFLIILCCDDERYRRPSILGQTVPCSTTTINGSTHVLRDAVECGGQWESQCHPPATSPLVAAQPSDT
Chain of receptor 5-HT4(d) (Q13639 1-360 isoform Q13639-3): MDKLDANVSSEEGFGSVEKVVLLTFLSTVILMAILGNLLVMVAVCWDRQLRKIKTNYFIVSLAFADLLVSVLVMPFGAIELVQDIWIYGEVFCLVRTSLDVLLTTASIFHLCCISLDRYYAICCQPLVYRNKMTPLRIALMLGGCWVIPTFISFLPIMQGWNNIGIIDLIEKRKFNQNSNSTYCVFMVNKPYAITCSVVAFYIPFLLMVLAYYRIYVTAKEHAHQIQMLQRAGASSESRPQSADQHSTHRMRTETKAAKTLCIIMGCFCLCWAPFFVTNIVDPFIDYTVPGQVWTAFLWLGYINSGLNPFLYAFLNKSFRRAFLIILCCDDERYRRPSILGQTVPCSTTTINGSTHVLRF

- effect on the basal cAMP levels [2]: no significant effect
- effect on the basal cAMP levels [3]: no significant effect
- antagonism of the stimulatory effect of 5-HT (1 μM) on the basal cAMP ([4]; 4 μg of plasmid DNA, preincubation with 1 μM): antagonized
- effect of PTX treatment on the ML10375-induced reduction in basal cAMP ([4]; 6 μg of plasmid DNA, ML10375 1 μM, PTX 100 ng/ml, 16-hour preincubation): did not significantly modify
- decrease in the basal cAMP level in the presence of 1 μM 5-HT ([4]; 8 μg of plasmid DNA, preincubation with 1 μM): 47%
- reduction of the basal cAMP levels ([4]; COS-7, 1 μM, no agonist): 21%
- decrease of the basal cAMP values ([4]; COS-7 transfected with 4 μg of plasmid DNA): 24%
- decrease of the basal cAMP values ([4]; COS-7 transfected with 8 μg of plasmid DNA): 62%
- reduction of the basal cAMP levels [5]: 24%
SMILES: COc1cc(N)c(Cl)cc1C(=O)OCCN1C[C@H](C)C[C@H](C)C1 [ML10375, 2-(cis-3,5-dimethyl-piperidino)ethyl 4-amino-5-chloro-2-methoxybenzoate]
- antagonism of the capacity of 5-HT (1 μM) to increase basal cAMP levels [1]: antagonizes
